# According to patent US10093716B2, “Methods for treating cancer” (UCL BUSINESS PLC, priority 2013, dated 2018):
# B1: TRAIL: recombinant iz-TRAIL produced in E. coli, LPS-free after purification (protein)
# chain: MAMMEVQGGPSLGQTCVLIVIFTVLLQSLCVAVTYVYFTNELKQMQDKYSKSGIACFLKEDDSYWDPNDEESMNSPCWQVKWQLRQLVRKMILRTSEETISTVQEKQQNISPLVRERGPQRVAAHITGTRGRSNTLSSPNSKNEKALGRKINSWESSRSGHSFLSNLHLRNGELVIHEKGFYYIYSQTYFRFQEEIKENTKNDKQMVQYIYKYTSYPDPILLMKSARNSCWSKDAEYGLYSIYQGGIFELKENDRIFVSVTNEHLIDMDHEASFFGAFLVG
# What was measured:
# A549 cells = assay: xCELLigence migration assay, A549; type: cell-based, human; settings: 100 μg/ml recombinant receptor-Fc protein during migration, FIG. 1F
# Protocol: siRNA-mediated knockdown. Knockdown experiments were performed by transient transfection of RISC-free control siRNA, siRNA pools or single sequences (Dharmacon) to silence the indicated proteins using Dharmafect I (Dharmacon) following the instruction manual. All cell lines were incubated for 48 h to achieve sufficient knockdown.
# Migration assays. Migration assays were performed using the xCELLigence System (Roche) according to manufacturer's instructions. See Supplementary Methods for detailed description.
# Migration assays were performed using the xCELLigence System (Roche) that uses specially designed microtiter plates containing gold microelectrodes to measure electrical impedance of cells adhering to electrodes in real time. Increased impedance of background control wells was subtracted from all other values, the increase in electrical impedance/migration of control siRNA-transfected/control vector-infected cells was then defined as 100% migration and relative migration of all other transfected samples was calculated as compared to control-transfected cells, accordingly. Migration plates (CIM 16) are based on the Boyden chamber principle, the lower surface of the filter is covered with microelectrodes measuring cells that have migrated through the pores and adhere to the lower surface of the filter in real time. […]
# A549-luc cells = assay: Experimental lung metastasis model, A549-luc cells injected into tail vein; type: in vivo, SCID beige mice; settings: 0.5 mg/mouse i.p., 3× per week starting 1 day after cell injection; bioluminescence after 2 weeks; FIG. 3D
# Protocol: FIGS. 3A-3D| KRAS-mutated cells require autocrine TRAIL-R2-mediated migration for metastasis formation. FIG. 3A, 2×10^6 A549-luc cells infected with shTRAIL-R2 or control vector were injected into the tail vein of SCID beige mice. Metastatic burden in the lungs was detected after three weeks by quantification of bioluminescence (Photons/second). Three representative mice from each group are shown (n=9/group). FIG. 3B, FIG. 3C Five lungs from each group that were closest to the average value of the respective group in the H&E quantification were subjected to further Ki67 and TUNEL stainings and quantified as Ki67 and TUNEL positive area within tumor nodules, respectively. Representative images are shown. FIG. 3D, A549-luc parental cells were injected as in FIG. 3A, mice were treated with Vehicle (PBS) or 0.5 mg TRAIL-R2-Fc/mouse starting the next day, 3× per week.
# Bioluminescence was determined after 2 weeks, representative mice are shown (n=8/group). Arrows indicate Ki67/TUNEL-positive cells. Dots represent individual lungs. Values are means+/−SEM; ns, not significant; * P<0.05 Student's t-test.
# Animal Models. […] Photons per second (Photon Flux) were quantified using the Ivis Spectrum software. […] After one week, tumours were palpable and their size was measured by caliper. […]
# Rac1 [1] = assay: Rac1 pulldown assay (GTP-bound Rac1, PAK1-beads), A549; type: cell-based, human; settings: A549 cells, iz-TRAIL 100 ng/ml; FIG. 8E
# Protocol: FIGS. 8A-8J| Autocrine TRAIL is required for caspase-independent migration and Rac1 activation. FIG. 8A, DLD-1 cells were transfected with the indicated siRNAs and subjected to migration assays. FIG. 8B, A549 cells were treated with DMSO or 10 μM zVAD-fmk and were subsequently subjected to migration assays. FIG. 8C, Dominant negative FADD (dnFADD)-overexpressing DLD-1 cells were transfected with the indicated siRNAs and subjected to migration assays. FIG. 8D, Parental and DLD-1 cells overexpressing dnFADD were treated with 1 μg/ml iz-TRAIL for the indicated times, subsequently lysed and subjected to Western blot analysis. FIG. 8E, A549 cells were treated with iz-TRAIL (100 ng/ml) for the indicated times and subjected to pulldown of GTP-bound Rac1 using PAK1-beads (Millipore-Rac1 activation kit). Cell lysates were subsequently analyzed by Western blotting. FIG. 8F, Control or shTRAIL-R2-infected A549 cells were subjected to pulldown of GTP-bound Rac1 as in FIG. 8E. FIG. 8G, A549 cells were transfected with the indicated siRNAs and subjected to migration assays. FIG. 8H, KRAS-mutated (DLD-1, HCT116) and isogenic KRAS-WT (DKO4, Hkh-2) cell lines were lysed and subjected to Western blotting. FIG. 8I, KRAS-mutated H460 cells were transfected with the indicated siRNAs. […]
# 2.5×10^6 cells were seeded into 10 cm dishes. […] Proteins were separated by SDS-PAGE (NuPAGE) and analyzed by Western blotting.
# Rac1 [2] = assay: Rac1 pulldown assay (GTP-bound Rac1, PAK1-beads), isogenic DLD-1 and DKO4; type: cell-based, human; settings: isogenic KRAS-mutated DLD-1 versus KRAS-WT DKO4, iz-TRAIL 100 ng/ml; FIG. 7E
# Protocol: FIGS. 7A-7F| Autocrine migration is independent of the DISC but requires Rac1. FIG. 7A, FADD-deficient clones 10, 41 and 50 were transfected with the indicated siRNAs and subjected to migration assays. FIG. 7B, Control vector-infected or shTRAIL-R2-infected A549 cells were fixed and stained using Texas red-coupled phalloidin and DAPI. Representative confocal images are shown (×400).c, A549 cells were treated with DMSO, PD98059 (10 μM), PIK75 (100 nM) or NSC23766 (100 μM) and subjected to migration assays. FIG. 7D, A549 cells were transfected with the indicated siRNAs and subjected to migration assays. FIG. 7E, Isogenic DLD-1 and DKO4 cells were treated with iz-TRAIL (100 ng/ml) for the indicated times and then subjected to pulldown of GTP-bound Rac1 using PAK1-beads (Millipore-Rac1 activation kit). FIG. 7F, KRAS-WT DKO4 cells were transfected with the indicated siRNAs and prior to migration treated with vehicle (H2O) or 10 μM Y27632. Representative Western blots are shown.
# 2.5×10^6 cells were seeded into 10 cm dishes. The next day, cells were incubated with and without 100 ng/ml iz-TRAIL. Cell lysis and Rac1 pulldown was performed using a Rac1-pulldown kit (Millipore) according to the manufacturer's instructions. Proteins were separated by SDS-PAGE (NuPAGE) and analyzed by Western blotting.
Molecule,migration (normalized to PBS-treated cells) (A549 cells),"metastasis (metastatic burden in lungs, bioluminescence) (A549-luc cells)",Rac1 activation (GTP-bound Rac1 pulldown) (Rac1 [1]),Rac1 activation (GTP-bound Rac1 pulldown) (Rac1 [2])
TRAIL-R2-Fc fusion protein: majority of the extracellular domain of human TRAIL-R2 fused to the Fc portion of human IgG1 (SEQ ID NO: 15); TRAIL-inhibiting,suppressed migration to a similar extent,significantly reduced metastasis,,
B1,,,able to activate Rac1,only capable of doing so in KRAS-mutated cells
